Measurements from patent US20250368664A1, “SURFACTANTS HAVING PEFA COMPOUNDS AND METHODS OF USE THEREOF” (Ruby Bio Inc., priority 2022, published 2025).

Assay: Solubility of nonionic surfactant in SDBS
Type: physicochemical
Details: in combination with SDBS at the stated ratio

## cetearyl glucoside [CGlucoside]
  solubility in SDBS: insoluble
